Results reported in paper PMC8058764 (Chemical Research in Toxicology, 2021).

Tests used:
CYP21A2 = conditions: NCI-H295R cells; cited from earlier work
[1] = Lopinavir intrinsic clearance by adult human liver microsomes; format: in vitro ADME
[2] = Lopinavir intrinsic clearance by neonatal human liver microsomes; format: in vitro ADME; conditions: for mean lopinavir percent loss: lopinavir 1 μM, 30 min
neonatal pooled HLMs = experiment: Inhibition of DHEA-S metabolism; format: biochemical, human; conditions: DHEA-S 50 μM, HLMs 0.05 mg/mL, lopinavir 8 μM without or with ritonavir 0.5 μM, 30 min
CYP17A1 = conditions: NCI-H295R cells; cited from earlier work
[3] = both, human, pooled adult human liver microsomes, pH 7.4
[4] = human, pooled neonatal human liver microsomes, pH 7.4

Cc1cccc(C)c1OCC(=O)N[C@@H](Cc1ccccc1)[C@@H](O)C[C@H](Cc1ccccc1)NC(=O)[C@H](C(C)C)N1CCCNC1=O [lopinavir]
inhibition of CYP21A2 (CYP21A2): moderate inhibition
mean lopinavir percent loss ([1]; adult HLMs 0.02 mg/mL, lopinavir 1 μM, 30 min): about 94%
lopinavir loss in presence of ritonavir ([1]; adult HLMs 0.02 mg/mL, lopinavir 1 μM, ritonavir 62.5 nM): less than 20%
half-life at 1 μM [1, 3]: 7.18 min
microsomal CLint at 1 μM [1, 3]: 4830 µL/min/mg
half-life at 1 μM [2, 4]: 52.1 min
microsomal CLint at 1 μM [2, 4]: 133 µL/min/mg
mean lopinavir percent loss ([2]; neonatal HLMs 0.02 mg/mL): 21%
mean lopinavir percent loss ([2]; neonatal HLMs 0.1 mg/mL): 32%
formation rate of 16α-hydroxy DHEA-S in neonatal HLMs (neonatal pooled HLMs): 1.19 nmol/min/mg protein
inhibition of CYP17A1 (CYP17A1): moderate inhibition
